From patent US11739100B2, “2,3-dihydro-1h-imidazo{1,2-a}pyrimidin-5-one and this 1,2,3,4-tetrahydropyrimido{1,2-a}pyrimidin-6-one derivatives comprising a substituted morpholine, preparation thereof and pharmaceutical use thereof” (SANOFI, priority 2012, dated 2023) come the findings set out here.

pIC50: −log10 of the molar value.

T1 sequence (Q8NEB9 whole entry): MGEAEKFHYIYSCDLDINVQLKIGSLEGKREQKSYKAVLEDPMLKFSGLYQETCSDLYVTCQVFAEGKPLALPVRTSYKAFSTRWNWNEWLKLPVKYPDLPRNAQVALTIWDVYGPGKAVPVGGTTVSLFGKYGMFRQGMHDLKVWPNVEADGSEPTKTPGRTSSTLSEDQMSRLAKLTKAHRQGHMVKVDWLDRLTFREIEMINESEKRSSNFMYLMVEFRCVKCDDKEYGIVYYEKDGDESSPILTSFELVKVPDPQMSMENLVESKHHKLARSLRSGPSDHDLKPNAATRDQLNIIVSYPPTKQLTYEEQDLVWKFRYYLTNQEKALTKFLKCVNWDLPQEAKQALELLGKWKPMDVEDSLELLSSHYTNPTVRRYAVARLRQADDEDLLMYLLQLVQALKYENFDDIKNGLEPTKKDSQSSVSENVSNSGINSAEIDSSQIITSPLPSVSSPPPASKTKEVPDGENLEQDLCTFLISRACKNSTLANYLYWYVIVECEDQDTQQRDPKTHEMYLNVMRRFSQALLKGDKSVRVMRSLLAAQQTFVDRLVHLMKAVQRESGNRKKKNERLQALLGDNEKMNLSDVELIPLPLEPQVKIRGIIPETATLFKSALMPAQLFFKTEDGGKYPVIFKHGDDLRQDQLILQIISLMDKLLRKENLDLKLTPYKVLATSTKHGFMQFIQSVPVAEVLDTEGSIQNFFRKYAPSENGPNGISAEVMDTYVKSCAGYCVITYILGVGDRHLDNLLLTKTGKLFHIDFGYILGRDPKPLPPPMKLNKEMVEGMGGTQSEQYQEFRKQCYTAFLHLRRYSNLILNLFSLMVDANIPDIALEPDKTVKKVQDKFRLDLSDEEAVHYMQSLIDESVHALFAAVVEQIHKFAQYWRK

The assay concerns the target T1, recombinant Vps34 (Homo sapiens, UniProt Q8NEB9).
T1 construct: purchased Invitrogen PV5126
In words: Phosphorylation of phosphatidylinositol (PI) by Vps34 in vitro, ADP detected by TR-FRET (HTRF Transcreener ADP). Conditions: 10 μM ATP, 55 μg/ml PI, approximately 3 nM Vps34, 1 hour at ambient temperature; absolute IC50, mean of two independent experiments; read-out: IC50 activity range. It counts as biochemical. (TR-FRET usually uses a lanthanide donor and a delayed reading to cut background.)
As for `O=c1cc(N2CC3CCC(C2)O3)nc2n1CC[C@@H](C(F)(F)F)N2Cc1cnc(Cl)s1` [Example 165, (S)-9-(2-Chloro-thiazol-5-ylmethyl)-2-(8-oxa-3-aza-bicyclo[3.2.1]oct-3-yl)-8-trifluoromethyl-6,7,8,9-tetrahydro-pyrimido[1,2-a]-pyrimidin-4-one], the pIC50 (usually the IC50 on a negative log10 scale, so that one unit is a factor of ten) is 7.00 to 8.00.

Take `O=c1cc(N2CC3CCC(C2)O3)nc2n1CC[C@@H](C(F)(F)F)N2Cc1ccnn1C(F)F` [Example 166, (S)-9-(2-Difluoromethyl-2H-pyrazol-3-ylmethyl)-2-(8-oxa-3-aza-bicyclo[3.2.1]oct-3-yl)-8-trifluoromethyl-6,7,8,9-tetrahydro-pyrimido[1,2-a]-pyrimidin-4-one]: the negative-log IC50 (pIC50) was 7.00 to 8.00.

With `O=c1cc(N2CC3CCC(C2)O3)nc2n1CC[C@@H](C(F)(F)F)N2Cc1ccn(C(F)F)n1` [Example 167, (S)-9-(1-Difluoromethyl-1H-pyrazol-3-ylmethyl)-2-(8-oxa-3-aza-bicyclo[3.2.1]oct-3-yl)-8-trifluoromethyl-6,7,8,9-tetrahydro-pyrimido[1,2-a]-pyrimidin-4-one], the pIC50 was 7.00 to 8.00.

On to `O=c1cc(N2CC3CCC(C2)O3)nc2n1CC[C@@H](C(F)(F)F)N2Cc1ccc(Cl)nc1` [Example 168, (S)-9-(6-Chloro-pyridin-3-ylmethyl)-2-(8-oxa-3-aza-bicyclo[3.2.1]oct-3-yl)-8-trifluoromethyl-6,7,8,9-tetrahydro-pyrimido[1,2-a]-pyrimidin-4-one], for which the negative logarithm of the IC50 (pIC50) is 7.00 to 8.00.

Regarding `O=c1cc(N2CC3CCC(C2)O3)nc2n1CC[C@@H](C(F)(F)F)N2Cc1ccon1` [Example 169, (S)-9-Isoxazol-3-yl-methyl-2-(8-oxa-3-azabicyclo[3.2.1]oct-3-yl)-8-trifluoromethyl-6,7,8,9-tetrahydro-pyrimido[1,2-a]-pyrimidin-4-one], the pIC50 is 7.00 to 8.00.

Turning to `O=C(CN1c2nc(N3CC4CCC(C3)O4)cc(=O)n2CC[C@H]1C(F)(F)F)c1cccnc1` [Example 170, (S)-2-(8-Oxa-3-aza-bicyclo[3.2.1]oct-3-yl)-9-(2-oxo-2-pyridin-3-ylethyl)-8-trifluoromethyl-6,7,8,9-tetrahydro-pyrimido[1,2-a]-pyrimidin-4-one], the pIC50 is 7.00 to 8.00.

For `O=C(CN1c2nc(N3CC4CCC(C3)O4)cc(=O)n2CC[C@H]1C(F)(F)F)c1ccccn1` [Example 171, (S)-2-(8-Oxa-3-aza-bicyclo[3.2.1]oct-3-yl)-9-(2-oxo-2-pyridin-2-ylethyl)-8-trifluoromethyl-6,7,8,9-tetrahydro-pyrimido[1,2-a]-pyrimidin-4-one], the negative logarithm of the IC50 (pIC50) is 7.00 to 8.00.

In the case of `C[C@H]1COCCN1c1cc(=O)n2c(n1)N(Cc1ccc(Cl)s1)[C@H](C(F)(F)F)CC2` [Example 178, (S)-9-(5-Chloro-thiophen-2-ylmethyl)-2-((S)-3-methyl-morpholin-4-yl)-8-trifluoromethyl-6,7,8,9-tetrahydro-pyrimido[1,2-a]-pyrimidin-4-one], the negative-log IC50 (pIC50) is 7.00 to 8.00.

`C[C@@H]1COCCN1c1cc(=O)n2c(n1)N(CC(=O)c1ccccn1)[C@](C)(C(F)(F)F)C2` [Example 179, (S)-2-Methyl-7-((R)-3-methylmorpholin-4-yl)-1-(2-oxo-2-pyridin-2-ylethyl)-2-trifluoromethyl-2,3-dihydro-1H-imidazo[1,2-a]-pyrimidin-5-one]: the pIC50 was greater than 8.00.

With `C[C@@H]1COCCN1c1cc(=O)n2c(n1)N(CC(=O)c1cccnc1)[C@](C)(C(F)(F)F)C2` [Example 180, (S)-2-Methyl-7-((R)-3-methylmorpholin-4-yl)-1-(2-oxo-2-pyridin-3-ylethyl)-2-trifluoromethyl-2,3-dihydro-1H-imidazo[1,2-a]-pyrimidin-5-one], the pIC50 was greater than 8.00.

With `C[C@@H]1COCCN1c1cc(=O)n2c(n1)N(Cc1ccnc(Cl)c1)[C@](C)(C(F)(F)F)C2` [Example 181, (S)-1-(2-Chloro-pyridin-4-ylmethyl)-2-methyl-7-((R)-3-methylmorpholin-4-yl)-2-trifluoromethyl-2,3-dihydro-1H-imidazo[1,2-a]-pyrimidin-5-one], the negative-log IC50 (pIC50) was greater than 8.00.

As for `C[C@@H]1COCCN1c1cc(=O)n2c(n1)N(Cc1cnco1)[C@](C)(C(F)(F)F)C2` [Example 182, (S)-2-Methyl-7-((R)-3-methylmorpholin-4-yl)-1-oxazol-5-ylmethyl-2-trifluoromethyl-2,3-dihydro-1H-imidazo[1,2-a]-pyrimidin-5-one], the pIC50 is 7.00 to 8.00.

Take `C[C@@H]1COCCN1c1cc(=O)n2c(n1)N(Cc1cocn1)[C@](C)(C(F)(F)F)C2` [Example 183, (S)-2-Methyl-7-((R)-3-methylmorpholin-4-yl)-1-oxazol-4-ylmethyl-2-trifluoromethyl-2,3-dihydro-1H-imidazo[1,2-a]-pyrimidin-5-one]: the pIC50 was greater than 8.00.

`C[C@@H]1COCCN1c1nc2n(c(=O)c1F)C[C@@](C)(C(F)(F)F)N2Cc1ccnc(Cl)c1` [Example 184, (S)-1-(2-Chloro-pyridin-4-ylmethyl)-6-fluoro-2-methyl-7-((R)-3-methylmorpholin-4-yl)-2-trifluoromethyl-2,3-dihydro-1H-imidazo[1,2-a]-pyrimidin-5-one]: the negative-log IC50 (pIC50) is greater than 8.00.

Turning to `CC(C)C(=O)CN1c2nc(N3CCOC[C@H]3C)c(F)c(=O)n2C[C@@]1(C)C(F)(F)F` [Example 185, (S)-6-Fluoro-2-methyl-7-((R)-3-methyl-morpholin-4-yl)-1-(3-methyl-2-oxobutyl)-2-trifluoromethyl-2,3-dihydro-1H-imidazo[1,2-a]-pyrimidin-5-one], the negative-log IC50 (pIC50) was greater than 8.00.

With `C[C@@H]1COCCN1c1nc2n(c(=O)c1F)C[C@@](C)(C(F)(F)F)N2CC(=O)C1CCOCC1` [Example 186, (S)-6-Fluoro-2-methyl-7-((R)-3-methyl-morpholin-4-yl)-1-[2-oxo-2-(tetrahydro-pyran-4-yl)ethyl]-2-trifluoromethyl-2,3-dihydro-1H-imidazo[1,2-a]-pyrimidin-5-one], the pIC50 was greater than 8.00.

As for `C[C@@H]1COCCN1c1nc2n(c(=O)c1F)C[C@@](C)(C(F)(F)F)N2CC(=O)C1CC1` [Example 187, (S)-1-(2-Cyclopropyl-2-oxoethyl)-6-fluoro-2-methyl-7-((R)-3-methylmorpholin-4-yl)-2-trifluoromethyl-2,3-dihydro-1H-imidazo[1,2-a]-pyrimidin-5-one], the pIC50 is greater than 8.00.

In the case of `C[C@@H]1COCCN1c1nc2n(c(=O)c1F)C[C@@](C)(C(F)(F)F)N2CC(=O)c1cccnc1` [Example 189, (S)-6-Fluoro-2-methyl-7-((R)-3-methyl-morpholin-4-yl)-1-(2-oxo-2-pyridin-3-yl-ethyl)-2-trifluoromethyl-2,3-dihydro-1H-imidazo[1,2-a]-pyrimidin-5-one], the negative-log IC50 (pIC50) was greater than 8.00.

Consider `C[C@@H]1COCCN1c1cc(=O)n2c(n1)N(CC(=O)C1CCOCC1)[C@](C)(C(F)(F)F)C2` [Example 190, (S)-2-Methyl-7-((R)-3-methylmorpholin-4-yl)-1-[2-oxo-2-(tetrahydro-pyran-4-yl)ethyl]-2-trifluoromethyl-2,3-dihydro-1H-imidazo[1,2-a]-pyrimidin-5-one], for which the pIC50 is greater than 8.00.

Turning to `O=c1cc(N2CCOC(CF)C2)nc2n1CC[C@@H](C(F)(F)F)N2Cc1ccccc1` (stereo partly drawn) [Example 193, (S)-9-Benzyl-2-(2-fluoromethyl-morpholin-4-yl)-8-trifluoromethyl-6,7,8,9-tetrahydro-pyrimido[1,2-a]-pyrimidin-4-one], the negative logarithm of the IC50 (pIC50) was less than 7.00.

On to `CON(C)C(=O)CN1c2nc(N3CCOC[C@H]3C)cc(=O)n2CC[C@H]1C(F)(F)F` [Example 196, N-Methoxy-N-methyl-2-[(S)-8-((R)-3-methyl-morpholin-4-yl)-6-oxo-2-trifluoromethyl-3,4-dihydro-2H,6H-pyrimido[1,2-a]-pyrimidin-1-yl]-acetamide], for which the pIC50 is greater than 8.00.

On to `CONC(=O)CN1c2nc(N3CCOC[C@H]3C)cc(=O)n2CC[C@H]1C(F)(F)F` [Example 197, N-Methoxy-2-[(S)-8-((R)-3-methyl-morpholin-4-yl)-6-oxo-2-trifluoromethyl-3,4-dihydro-2H,6H-pyrimido[1,2-a]-pyrimidin-1-yl]-acetamide], for which the pIC50 is 7.00 to 8.00.

Consider `C[C@@H]1COCCN1c1cc(=O)n2c(n1)N(c1ccncc1)[C@H](C(F)(F)F)CC2` [Example 198, (S)-2-((R)-3-Methyl-morpholin-4-yl)-9-pyridin-4-yl-8-trifluoromethyl-6,7,8,9-tetrahydro-pyrimido[1,2-a]-pyrimidin-4-one], for which the negative-log IC50 (pIC50) was greater than 8.00.

As for `C[C@@H]1COCCN1c1nc2n(c(=O)c1F)C[C@@](C)(C(F)(F)F)N2CC(=O)c1ccccn1` [Example 199, (S)-6-Fluoro-2-methyl-7-((R)-3-methyl-morpholin-4-yl)-1-(2-oxo-2-pyridin-2-yl-ethyl)-2-trifluoromethyl-2,3-dihydro-1H-imidazo[1,2-a]-pyrimidin-5-one], the negative-log IC50 (pIC50) is greater than 8.00.

`C[C@@H]1COCCN1c1cc(=O)n2c(n1)N(CC(C)(C)O)[C@](C)(C(F)(F)F)CC2` [Example 200, (S)-9-(2-Hydroxy-2-methylpropyl)-8-methyl-2-((R)-3-methylmorpholin-4-yl)-8-trifluoromethyl-6,7,8,9-tetrahydro-pyrimido[1,2-a]-pyrimidin-4-one]: the negative logarithm of the IC50 (pIC50) is greater than 8.00.

For the compound `CC(C)c1nc(CN2c3nc(N4CCOC[C@H]4C)cc(=O)n3CC[C@H]2C(F)(F)F)no1` [Example 201, (S)-9-(5-Isopropyl-[1,2,4]oxadiazol-3-yl-methyl)-2-((R)-3-methylmorpholin-4-yl)-8-trifluoromethyl-6,7,8,9-tetrahydro-pyrimido[1,2-a]-pyrimidin-4-one], the pIC50 is greater than 8.00.

Regarding `C[C@@H]1COCCN1c1cc(=O)n2c(n1)N(Cc1noc(C3CC3)n1)[C@H](C(F)(F)F)CC2` [Example 202, (S)-9-(5-Cyclopropyl-[1,2,4]oxadiazol-3-yl-methyl)-2-((R)-3-methylmorpholin-4-yl)-8-trifluoromethyl-6,7,8,9-tetrahydro-pyrimido[1,2-a]-pyrimidin-4-one], the pIC50 is greater than 8.00.
